Test results from patent publication US6737383B1, “Herbicidal oxadiazolidines” (priority 1999, dated 2004).

Key:
morningglory = assay: Test B pre/postemergence morningglory; format: in vivo, Ipomoea hederacea
In short: (§1)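 Herbicidal effect was estimated by eye on a ten-point control scale after plants spent twelve to sixteen days in a greenhouse following soil or foliar treatment. Foliar sprays targeted plants at one to four leaves; all doses were formulated in a non-phytotoxic solvent with surfactant.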

crabgrass = assay: Test B pre/postemergence crabgrass; format: in vivo, Digitaria sanguinalis
In short: as §1

smallflower flatsedge = assay: Test B flood test smallflower flatsedge; format: in vivo, Cyperus difformis; details: for S. Flatsedge plant response rating: Postemergence section (flood test species)
In short: (§2)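 Each value is a visual injury score relative to controls, with 10 meaning complete control and 0 no effect. Evaluation took place twelve to sixteen days after the 2-leaf-stage plants were treated and kept in the greenhouse.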

blackgrass = assay: Test B pre/postemergence blackgrass; format: in vivo, Alopecurus myosuroides
In short: as §1

pigweed = assay: Test B pre/postemergence pigweed; format: in vivo, Amaranthus retroflexus
In short: as §1

duck salad = assay: Test B flood test duck salad; format: in vivo, Heteranthera limosa
In short: as §2

corn = assay: Test B pre/postemergence corn; format: in vivo, Zea mays
In short: as §1

rape = assay: Test B pre/postemergence rape; format: in vivo, Brassica napus
In short: as §1

purple nutsedge = assay: Test B pre/postemergence purple nutsedge; format: in vivo, Cyperus rotundus
In short: as §1

wild oat = assay: Test B pre/postemergence wild oat; format: in vivo, Avena fatua
In short: as §1

cocklebur = assay: Test B pre/postemergence cocklebur; format: in vivo, Xanthium strumarium
In short: as §1

sugar beet = assay: Test B pre/postemergence sugar beet; format: in vivo, Beta vulgaris
In short: as §1

surinam grass = assay: Test B pre/postemergence surinam grass; format: in vivo, Brachiaria decumbens
In short: as §1

bedstraw = assay: Test B pre/postemergence bedstraw; format: in vivo, Galium aparine; details: Postemergence
In short: as §1

velvetleaf = assay: Test B pre/postemergence velvetleaf; format: in vivo, Abutilon theophrasti
In short: as §1

wheat = assay: Test B pre/postemergence wheat; format: in vivo, Triticum aestivum
In short: as §1

[1] = Postemergence, Rate 250 g/ha, scale 0 to 10, 0 is no effect, 10 is complete control
[2] = Postemergence, Rate 500 g/ha, scale of 0 to 10 where 0 is no effect and 10 is complete control
[3] = Preemergence, Rate 62 g/ha, scale 0 to 10 (0 no effect, 10 complete control)
[4] = Preemergence, Rate 125 g/ha, scale of 0 to 10 where 0 is no effect and 10 is complete control
[5] = Preemergence, Rate 250 g/ha, scale 0 to 10, 0 is no effect, 10 is complete control
[6] = Preemergence, Rate 500 g/ha, scale 0 to 10, 0 is no effect, 10 is complete control
[7] = Rate 125 g/ha, Postemergence, scale 0 to 10, 0 is no effect, 10 is complete control
[8] = Rate 62 g/ha, Postemergence, scale of 0 to 10 where 0 is no effect and 10 is complete control
[9] = Rate 500 g/ha, scale of 0 to 10 where 0 is no effect and 10 is complete control
[10] = Rate 125 g/ha, scale 0 to 10, 0 is no effect, 10 is complete control
[11] = flood test species, listed under Postemergence, Rate 250 g/ha, scale 0 to 10, 0 is no effect, 10 is complete control
[12] = Preemergence, Rate 250 g/ha, scale of 0 to 10 where 0 is no effect and 10 is complete control

Q: How did the “Plant response rating, Morningglory” value (morningglory; [1]) turn out when `CC(C)N(C(=O)n1oc(=O)n(C(CF)CF)c1=O)c1ccccc1` [Compound 421] was run?
A: 9

Q: What about the “Morningglory plant response rating” value (morningglory; [2]) of the same molecule?
A: 10

Q: What about the “Plant response rating, Morningglory” value (morningglory; [3]) of the same molecule?
A: 4

Q: What about the “Plant response rating, Morningglory” value (morningglory; [4]) of the same molecule?
A: 6

Q: And the “Morningglory plant response rating” value (morningglory; [5])?
A: 7

Q: And the “Morningglory plant response rating” value (morningglory; [6])?
A: 8

Q: What about the “Morningglory plant response rating” value (morningglory; [7]) of the same molecule?
A: 8

Q: And the “Plant response rating, Crabgrass” value (crabgrass; [1])?
A: 8

Q: What about the “Crabgrass plant response rating” value (crabgrass; [2]) of the same molecule?
A: 8

Q: What about the “Plant response rating, Crabgrass” value (crabgrass; [3]) of the same molecule?
A: 8

Q: What about the “Plant response rating, Crabgrass” value (crabgrass; [4]) of the same molecule?
A: 8

Q: What about the “Crabgrass plant response rating” value (crabgrass; [5]) of the same molecule?
A: 9

Q: And the “Crabgrass plant response rating” value (crabgrass; [6])?
A: 10

Q: What about the “Crabgrass plant response rating” value (crabgrass; [8]) of the same molecule?
A: 4

Q: What about the “Crabgrass plant response rating” value (crabgrass; [7]) of the same molecule?
A: 7

Q: What about the “S. Flatsedge plant response rating” value (smallflower flatsedge; [9]) of the same molecule?
A: 0

Q: What about the “S. Flatsedge plant response rating” value (smallflower flatsedge; [10]) of the same molecule?
A: 0

Q: And the “Plant response rating, S. Flatsedge” value (smallflower flatsedge; [11])?
A: 0

Q: And the “Plant response rating, Blackgrass” value (blackgrass; [1])?
A: 8

Q: What about the “Blackgrass plant response rating” value (blackgrass; [2]) of the same molecule?
A: 10

Q: And the “Plant response rating, Blackgrass” value (blackgrass; [3])?
A: 8

Q: What about the “Plant response rating, Blackgrass” value (blackgrass; [4]) of the same molecule?
A: 10

Q: What about the “Blackgrass plant response rating” value (blackgrass; [12]) of the same molecule?
A: 10

Q: And the “Blackgrass plant response rating” value (blackgrass; [6])?
A: 10

Q: And the “Blackgrass plant response rating” value (blackgrass; [8])?
A: 8

Q: And the “Blackgrass plant response rating” value (blackgrass; [7])?
A: 8

Q: And the “Plant response rating, Redroot pigweed” value (pigweed; [1])?
A: 5

Q: What about the “Redroot pigweed plant response rating” value (pigweed; [2]) of the same molecule?
A: 8

Q: And the “Plant response rating, Redroot pigweed” value (pigweed; [3])?
A: 8

Q: And the “Plant response rating, Redroot pigweed” value (pigweed; [4])?
A: 10

Q: What about the “Redroot pigweed plant response rating” value (pigweed; [5]) of the same molecule?
A: 10

Q: And the “Redroot pigweed plant response rating” value (pigweed; [6])?
A: 10

Q: And the “Redroot pigweed plant response rating” value (pigweed; [7])?
A: 2

Q: And the “Ducksalad plant response rating” value (duck salad; Postemergence section (flood test species), Rate 500 g/ha, scale of 0 to 10 where 0 is no effect and 10 is complete control)?
A: 2

Q: What about the “Ducksalad plant response rating” value (duck salad; Rate 62 g/ha, Postemergence (flood test species), scale of 0 to 10 where 0 is no effect and 10 is complete control) of the same molecule?
A: 0

Q: And the “Ducksalad plant response rating” value (duck salad; Rate 125 g/ha, Postemergence section (flood test species), scale 0 to 10, 0 is no effect, 10 is complete control)?
A: 0

Q: What about the “Plant response rating, Ducksalad” value (duck salad; [11]) of the same molecule?
A: 2

Q: And the “Plant response rating, Corn” value (corn; [1])?
A: 3

Q: And the “Corn plant response rating” value (corn; [2])?
A: 7

Q: What about the “Plant response rating, Corn” value (corn; [3]) of the same molecule?
A: 4

Q: What about the “Plant response rating, Corn” value (corn; [4]) of the same molecule?
A: 5

Q: What about the “Corn plant response rating” value (corn; [5]) of the same molecule?
A: 8

Q: And the “Corn plant response rating” value (corn; [6])?
A: 8

Q: What about the “Corn plant response rating” value (corn; [8]) of the same molecule?
A: 0

Q: And the “Corn plant response rating” value (corn; [7])?
A: 0

Q: What about the “Plant response rating, Rape” value (rape; [1]) of the same molecule?
A: 3

Q: What about the “Rape plant response rating” value (rape; [2]) of the same molecule?
A: 8

Q: And the “Plant response rating, Rape” value (rape; [3])?
A: 8

Q: What about the “Plant response rating, Rape” value (rape; [4]) of the same molecule?
A: 10

Q: And the “Rape plant response rating” value (rape; [5])?
A: 10

Q: And the “Rape plant response rating” value (rape; [6])?
A: 10

Q: What about the “Rape plant response rating” value (rape; [7]) of the same molecule?
A: 0

Q: And the “Plant response rating, Nutsedge” value (purple nutsedge; [1])?
A: 0

Q: And the “Nutsedge plant response rating” value (purple nutsedge; [2])?
A: 2

Q: What about the “Plant response rating, Nutsedge” value (purple nutsedge; [3]) of the same molecule?
A: 0

Q: What about the “Plant response rating, Nutsedge” value (purple nutsedge; [4]) of the same molecule?
A: 0

Q: And the “Nutsedge plant response rating” value (purple nutsedge; [5])?
A: 0

Q: And the “Nutsedge plant response rating” value (purple nutsedge; [6])?
A: 0

Q: And the “Nutsedge plant response rating” value (purple nutsedge; [7])?
A: 0

Q: What about the “Wild oats plant response rating” value (wild oat; [2]) of the same molecule?
A: 8

Q: What about the “Plant response rating, Wild oats” value (wild oat; [3]) of the same molecule?
A: 6

Q: What about the “Plant response rating, Wild oats” value (wild oat; [4]) of the same molecule?
A: 7

Q: What about the “Wild oats plant response rating” value (wild oat; [5]) of the same molecule?
A: 10

Q: What about the “Wild oats plant response rating” value (wild oat; [6]) of the same molecule?
A: 10

Q: What about the “Wild oats plant response rating” value (wild oat; [7]) of the same molecule?
A: 0

Q: And the “Plant response rating, Cocklebur” value (cocklebur; [1])?
A: 1

Q: What about the “Cocklebur plant response rating” value (cocklebur; [2]) of the same molecule?
A: 6

Q: And the “Plant response rating, Cocklebur” value (cocklebur; [3])?
A: 0

Q: And the “Plant response rating, Cocklebur” value (cocklebur; [4])?
A: 0

Q: What about the “Cocklebur plant response rating” value (cocklebur; [6]) of the same molecule?
A: 0

Q: And the “Cocklebur plant response rating” value (cocklebur; [8])?
A: 0

Q: And the “Cocklebur plant response rating” value (cocklebur; [7])?
A: 0

Q: What about the “Plant response rating, Sugarbeets” value (sugar beet; [1]) of the same molecule?
A: 3

Q: What about the “Sugarbeets plant response rating” value (sugar beet; [2]) of the same molecule?
A: 6

Q: And the “Plant response rating, Sugarbeets” value (sugar beet; [3])?
A: 8

Q: And the “Plant response rating, Sugarbeets” value (sugar beet; [4])?
A: 10

Q: What about the “Sugarbeets plant response rating” value (sugar beet; [5]) of the same molecule?
A: 10

Q: And the “Sugarbeets plant response rating” value (sugar beet; [6])?
A: 10

Q: What about the “Sugarbeets plant response rating” value (sugar beet; [7]) of the same molecule?
A: 0

Q: What about the “Plant response rating, B. signalgrass” value (surinam grass; [1]) of the same molecule?
A: 7

Q: What about the “B. signalgrass plant response rating” value (surinam grass; [2]) of the same molecule?
A: 10

Q: And the “Plant response rating, B. signalgrass” value (surinam grass; [3])?
A: 7

Q: What about the “Plant response rating, B. signalgrass” value (surinam grass; [4]) of the same molecule?
A: 8

Q: And the “B. signalgrass plant response rating” value (surinam grass; [12])?
A: 9

Q: And the “B. signalgrass plant response rating” value (surinam grass; Preemergence, Rate 500 g/ha, scale of 0 to 10 where 0 is no effect and 10 is complete control)?
A: 9

Q: And the “B. signalgrass plant response rating” value (surinam grass; [8])?
A: 0

Q: And the “B. signalgrass plant response rating” value (surinam grass; [7])?
A: 3

Q: What about the “Plant response rating, Bedstraw” value (bedstraw; Rate 250 g/ha, scale 0 to 10, 0 is no effect, 10 is complete control) of the same molecule?
A: 7

Q: What about the “Bedstraw plant response rating” value (bedstraw; [9]) of the same molecule?
A: 7

Q: What about the “Bedstraw plant response rating” value (bedstraw; [10]) of the same molecule?
A: 4

Q: What about the “Plant response rating, Velvetleaf” value (velvetleaf; [1]) of the same molecule?
A: 4

Q: And the “Velvetleaf plant response rating” value (velvetleaf; [2])?
A: 7

Q: And the “Plant response rating, Velvetleaf” value (velvetleaf; [3])?
A: 8

Q: What about the “Plant response rating, Velvetleaf” value (velvetleaf; [4]) of the same molecule?
A: 9

Q: And the “Velvetleaf plant response rating” value (velvetleaf; [5])?
A: 10

Q: What about the “Velvetleaf plant response rating” value (velvetleaf; [6]) of the same molecule?
A: 10

Q: And the “Velvetleaf plant response rating” value (velvetleaf; [7])?
A: 0

Q: What about the “Wheat plant response rating” value (wheat; [2]) of the same molecule?
A: 7

Q: And the “Plant response rating, Wheat” value (wheat; [3])?
A: 4

Q: What about the “Plant response rating, Wheat” value (wheat; [4]) of the same molecule?
A: 4

Q: What about the “Wheat plant response rating” value (wheat; [5]) of the same molecule?
A: 7

Q: What about the “Wheat plant response rating” value (wheat; [6]) of the same molecule?
A: 9

Q: What about the “Wheat plant response rating” value (wheat; [7]) of the same molecule?
A: 1
